In patent publication US11780845B2 (Relay Therapeutics, Inc., priority 2019, dated 2023):

target: FGFR2 (Homo sapiens (Human), UniProt P21802); experiment: FGFR2 Biochemical Caliper Assay; settings: not given
Protocol: Compounds of the present invention were also tested in a FGFR2 Biochemical Caliper Assay. Compounds were prepared in 10 mM DMSO solution and serially diluted into 11 concentrations by 3-fold dilution. […] 5 uL of ATP solution (100 uM) was added to start the reaction and the plate was incubated for 90 minutes, then 70 uL of stopping buffer (0.5M EDTA) was added to terminate the reaction. Each well was analyzed using EZ reader.

Sequence of FGFR2 (P21802 22-821): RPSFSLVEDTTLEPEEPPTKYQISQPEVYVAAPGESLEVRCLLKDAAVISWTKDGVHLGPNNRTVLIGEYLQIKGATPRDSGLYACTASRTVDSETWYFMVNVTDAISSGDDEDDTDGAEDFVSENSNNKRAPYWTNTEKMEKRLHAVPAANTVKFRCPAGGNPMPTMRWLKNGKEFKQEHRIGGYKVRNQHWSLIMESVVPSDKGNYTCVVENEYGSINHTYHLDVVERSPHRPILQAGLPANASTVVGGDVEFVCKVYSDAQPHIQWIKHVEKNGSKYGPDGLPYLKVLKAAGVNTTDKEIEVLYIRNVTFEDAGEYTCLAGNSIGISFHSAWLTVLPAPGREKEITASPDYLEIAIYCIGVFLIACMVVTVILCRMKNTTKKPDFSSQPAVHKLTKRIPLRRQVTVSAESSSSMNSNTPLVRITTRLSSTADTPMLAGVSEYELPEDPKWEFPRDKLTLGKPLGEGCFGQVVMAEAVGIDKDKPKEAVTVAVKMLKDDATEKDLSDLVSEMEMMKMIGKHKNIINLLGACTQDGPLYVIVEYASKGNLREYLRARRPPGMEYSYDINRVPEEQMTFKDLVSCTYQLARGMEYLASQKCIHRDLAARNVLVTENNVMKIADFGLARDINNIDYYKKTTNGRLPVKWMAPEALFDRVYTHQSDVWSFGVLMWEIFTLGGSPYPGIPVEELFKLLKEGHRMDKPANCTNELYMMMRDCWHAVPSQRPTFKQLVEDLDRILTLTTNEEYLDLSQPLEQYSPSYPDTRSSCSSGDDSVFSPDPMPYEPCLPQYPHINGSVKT

Row | IC50 | Compound
1 | 100 to 250 nM | C=CC(=O)N1CCC(n2cc(-c3c(-c4ccc(Oc5ccccn5)c(OC)c4)c4c(N)ncnc4n3C)cn2)CC1C (centres unmarked) [Example 664]
2 | < 100 nM | C=CC(=O)Nc1ccc(-c2c(-c3ccc(Oc4ncccn4)c(OC)c3)c3c(N)ncnc3n2C)cc1 [Example 15]
3 | 100 to 250 nM | C=CC(=O)N1CCC(c2c(-c3ccc(Oc4ncc(Cl)cn4)cc3)c3c(N)ncnc3n2C)C1 (centres unmarked) [Example 739]
4 | < 100 nM | C=C(C)C(=O)Nc1ccc(-c2c(-c3ccc(C(=O)N4CCCCCC4)cc3)c3c(N)ncnc3n2C)cc1 [Example 230]
5 | < 100 nM | C=C(C)C(=O)Nc1ccc(-c2c(-c3ccc(C(=O)N4CCCC4)cc3)c3c(N)ncnc3n2C)c(C#N)c1 [Example 435]
6 | 100 to 250 nM | C=CC(=O)N1CCC(c2c(-c3cnn(CC4CCNCC4)c3)c3c(N)ncnc3n2C)C1 (centres unmarked) [Example 732]
7 | 250 to 1000 nM | C=C(C)C(=O)Nc1ccc(-c2c(-c3ccc(C(=O)NCC4CCCN4C)cc3)c3c(N)ncnc3n2C)cc1 (centres unmarked) [Example 377]
8 | < 100 nM | C=C(C)C(=O)Nc1ccc(-c2c(-c3ccc(C(=O)NCC(O)C(F)(F)F)cc3)c3c(N)ncnc3n2C)cc1 (centres unmarked) [Example 332]
9 | < 100 nM | C=CC(=O)N1CCC(c2c(-c3ccc(C(=O)N4CCCCC4)cc3)c3c(N)ncnc3n2C)C1 (centres unmarked) [Example 750]
10 | 100 to 250 nM | C=C(C)C(=O)Nc1ccc(-c2c(-c3ccc(Oc4cccc(C)n4)cc3)c3c(N)ncnc3n2C)cc1C [Example 385]
11 | < 100 nM | C=C(C)C(=O)Nc1ccc(-c2c(-c3ccc(Oc4nccc(C)n4)c(F)c3)c3c(N)ncnc3n2C)c(CO)c1 [Example 513]
12 | < 100 nM | C=CC(=O)N1CCC(n2cc(-c3c(-c4ccc(Oc5ccccn5)cc4)c4c(N)ncnc4n3C)cn2)CC1 [Example 638]
13 | 250 to 1000 nM | C=C(C)C(=O)Nc1ccc(-c2c(-c3ccc(Oc4ncccn4)c(OC)c3)c3c(N)ncnc3n2C)cc1 [Example 36]
14 | 250 to 1000 nM | C=C(C)C(=O)N1CCC(c2c(-c3ccc(Oc4cccc(C)n4)cc3)c3c(N)ncnc3n2C)C1 (centres unmarked) [Example 691]
15 | 1000 to 100000 nM | C=C(C)C(=O)Nc1ccc(-c2c(-c3ccc(Oc4nccc(C)n4)cc3C#N)c3c(N)ncnc3n2C)cc1 [Example 564]
16 | < 100 nM | C=C(C)C(=O)Nc1ccc(-c2c(-c3ccc(Oc4nccc(C)n4)cc3)c3c(N)ncnc3n2C)cc1 [Example 382]
17 | 250 to 1000 nM | C=C(C)C(=O)Nc1ccc(-c2c(-c3ccc(Oc4ccc(OC)c(F)n4)cc3)c3c(N)ncnc3n2C)cc1 [Example 117]
18 | < 100 nM | C=CC(=O)N1CCC(n2cc(-c3c(-c4ccc(OC)cc4)c4c(N)ncnc4n3C)cn2)CC1 [Example 618]
19 | < 100 nM | C=C(C)C(=O)Nc1ccc(-c2c(-c3ccc(C(=O)NCC(C)(C)OC)cc3)c3c(N)ncnc3n2C)cc1 [Example 306]
20 | < 100 nM | C=C(C)C(=O)Nc1ccc(-c2c(-c3ccc(C(=O)NCC4(CO)CC4)cc3)c3c(N)ncnc3n2C)cc1 [Example 372]
21 | 100 to 250 nM | C=C(C)C(=O)Nc1ccc(-c2c(-c3ccc(Oc4cccc(C)n4)cc3)c3c(N)ncnc3n2C)cc1CN(C)C [Example 380]
22 | < 100 nM | C=CC(=O)N1CC=C(c2c(-c3ccc(Oc4ncccn4)cc3)c3c(N)ncnc3n2C)C1 [Example 686]
23 | < 100 nM | C=C(C)C(=O)Nc1ccc(-c2c(-c3c(F)cc(Oc4nccc(C)n4)cc3F)c3c(N)ncnc3n2C)cc1 [Example 570]
24 | 100 to 250 nM | C=C(C)C(=O)Nc1ccc(-c2c(-c3ccc(C(=O)NC4CCCC4OC)cc3)c3c(N)ncnc3n2C)cc1 (centres unmarked) [Example 321]
25 | < 100 nM | C=CC(=O)Nc1ccc(-c2c(-c3ccc(Oc4ncc(NC)cn4)c(OC)c3)c3c(N)ncnc3n2C)cc1 [Example 98]
26 | 100 to 250 nM | C=C(C)C(=O)Nc1ccc(-c2c(C3=CCC(Oc4ncc(F)cn4)CC3)c3c(N)ncnc3n2C)cc1 (centres unmarked) [Example 458]
27 | < 100 nM | C=CC(=O)Nc1ccc(-c2c(-c3ccc(Oc4ccccn4)c(OC)c3)c3c(N)ncnc3n2C)cc1 [Example 5]
28 | 100 to 250 nM | C=CC(=O)N1CCCC(n2cc(-c3c(-c4ccc(Oc5ccccc5)cc4)c4c(N)ncnc4n3C)cn2)C1C (centres unmarked) [Example 626]

tested on: SNU16 cells; experiment: SNU16 Cancer Cell Line Proliferation Assay; type: cell-based; settings: Homo sapiens; SNU-16 cells
Summary of the method: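 SNU16 cells were seeded, held 24 h at 37 degrees, then dosed with an 11-point 3-fold dilution series prepared from a 10 mM DMSO stock. After 96 h incubation, viability was read by CellTiter Glo luminescence.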

Row | IC50 | Compound
29 | 100 to 250 nM | C=CC(=O)N1CCC(n2cc(-c3c(-c4ccc(Oc5ccccn5)c(OC)c4)c4c(N)ncnc4n3C)cn2)CC1C (centres unmarked) [Example 664]
30 | ≤ 100 nM | C=CC(=O)Nc1ccc(-c2c(-c3ccc(Oc4ncccn4)c(OC)c3)c3c(N)ncnc3n2C)cc1 [Example 15]
31 | ≤ 100 nM | C=CC(=O)N1CCC(c2c(-c3ccc(Oc4ncc(Cl)cn4)cc3)c3c(N)ncnc3n2C)C1 (centres unmarked) [Example 739]
32 | ≤ 100 nM | C=C(C)C(=O)Nc1ccc(-c2c(-c3ccc(C(=O)N4CCCCCC4)cc3)c3c(N)ncnc3n2C)cc1 [Example 230]
33 | 100 to 250 nM | C=C(C)C(=O)Nc1ccc(-c2c(-c3ccc(C(=O)N4CCCC4)cc3)c3c(N)ncnc3n2C)c(C#N)c1 [Example 435]
34 | 1000 to 100000 nM | C=CC(=O)N1CCC(c2c(-c3cnn(CC4CCNCC4)c3)c3c(N)ncnc3n2C)C1 (centres unmarked) [Example 732]
35 | 250 to 1000 nM | C=C(C)C(=O)Nc1ccc(-c2c(-c3ccc(C(=O)NCC4CCCN4C)cc3)c3c(N)ncnc3n2C)cc1 (centres unmarked) [Example 377]
36 | 250 to 1000 nM | C=C(C)C(=O)Nc1ccc(-c2c(-c3ccc(C(=O)NCC(O)C(F)(F)F)cc3)c3c(N)ncnc3n2C)cc1 (centres unmarked) [Example 332]
37 | ≤ 100 nM | C=CC(=O)N1CCC(c2c(-c3ccc(C(=O)N4CCCCC4)cc3)c3c(N)ncnc3n2C)C1 (centres unmarked) [Example 750]
38 | ≤ 100 nM | C=C(C)C(=O)Nc1ccc(-c2c(-c3ccc(Oc4cccc(C)n4)cc3)c3c(N)ncnc3n2C)cc1C [Example 385]
39 | ≤ 100 nM | C=C(C)C(=O)Nc1ccc(-c2c(-c3ccc(Oc4nccc(C)n4)c(F)c3)c3c(N)ncnc3n2C)c(CO)c1 [Example 513]
40 | ≤ 100 nM | C=CC(=O)N1CCC(n2cc(-c3c(-c4ccc(Oc5ccccn5)cc4)c4c(N)ncnc4n3C)cn2)CC1 [Example 638]
41 | 100 to 250 nM | C=C(C)C(=O)Nc1ccc(-c2c(-c3ccc(Oc4ncccn4)c(OC)c3)c3c(N)ncnc3n2C)cc1 [Example 36]
42 | 1000 to 100000 nM | C=C(C)C(=O)N1CCC(c2c(-c3ccc(Oc4cccc(C)n4)cc3)c3c(N)ncnc3n2C)C1 (centres unmarked) [Example 691]
43 | 250 to 1000 nM | C=C(C)C(=O)Nc1ccc(-c2c(-c3ccc(Oc4nccc(C)n4)cc3C#N)c3c(N)ncnc3n2C)cc1 [Example 564]
44 | ≤ 100 nM | C=C(C)C(=O)Nc1ccc(-c2c(-c3ccc(Oc4nccc(C)n4)cc3)c3c(N)ncnc3n2C)cc1 [Example 382]
45 | 100 to 250 nM | C=C(C)C(=O)Nc1ccc(-c2c(-c3ccc(Oc4ccc(OC)c(F)n4)cc3)c3c(N)ncnc3n2C)cc1 [Example 117]
46 | ≤ 100 nM | C=CC(=O)N1CCC(n2cc(-c3c(-c4ccc(OC)cc4)c4c(N)ncnc4n3C)cn2)CC1 [Example 618]
47 | ≤ 100 nM | C=C(C)C(=O)Nc1ccc(-c2c(-c3ccc(C(=O)NCC(C)(C)OC)cc3)c3c(N)ncnc3n2C)cc1 [Example 306]
48 | 250 to 1000 nM | C=C(C)C(=O)Nc1ccc(-c2c(-c3ccc(C(=O)NCC4(CO)CC4)cc3)c3c(N)ncnc3n2C)cc1 [Example 372]
49 | 250 to 1000 nM | C=C(C)C(=O)Nc1ccc(-c2c(-c3ccc(Oc4cccc(C)n4)cc3)c3c(N)ncnc3n2C)cc1CN(C)C [Example 380]
50 | ≤ 100 nM | C=CC(=O)N1CC=C(c2c(-c3ccc(Oc4ncccn4)cc3)c3c(N)ncnc3n2C)C1 [Example 686]
51 | ≤ 100 nM | C=C(C)C(=O)Nc1ccc(-c2c(-c3c(F)cc(Oc4nccc(C)n4)cc3F)c3c(N)ncnc3n2C)cc1 [Example 570]
52 | 100 to 250 nM | C=C(C)C(=O)Nc1ccc(-c2c(-c3ccc(C(=O)NC4CCCC4OC)cc3)c3c(N)ncnc3n2C)cc1 (centres unmarked) [Example 321]
53 | ≤ 100 nM | C=CC(=O)Nc1ccc(-c2c(-c3ccc(Oc4ncc(NC)cn4)c(OC)c3)c3c(N)ncnc3n2C)cc1 [Example 98]
54 | ≤ 100 nM | C=C(C)C(=O)Nc1ccc(-c2c(C3=CCC(Oc4ncc(F)cn4)CC3)c3c(N)ncnc3n2C)cc1 (centres unmarked) [Example 458]
55 | ≤ 100 nM | C=CC(=O)Nc1ccc(-c2c(-c3ccc(Oc4ccccn4)c(OC)c3)c3c(N)ncnc3n2C)cc1 [Example 5]
56 | 250 to 1000 nM | C=CC(=O)N1CCCC(n2cc(-c3c(-c4ccc(Oc5ccccc5)cc4)c4c(N)ncnc4n3C)cn2)C1C (centres unmarked) [Example 626]
